{"source": "patent US20240208992A1", "about": "“MACROCYCLES AS CFTR MODULATORS” (Idorsia Pharmaceuticals Ltd, priority 2021, published 2024)", "biological_target": "human F508del-CFTR (Homo sapiens, UniProt P13569, DEL508-508)", "sequence (P13569 with tags, fused parts or gaps DEL508-508)": "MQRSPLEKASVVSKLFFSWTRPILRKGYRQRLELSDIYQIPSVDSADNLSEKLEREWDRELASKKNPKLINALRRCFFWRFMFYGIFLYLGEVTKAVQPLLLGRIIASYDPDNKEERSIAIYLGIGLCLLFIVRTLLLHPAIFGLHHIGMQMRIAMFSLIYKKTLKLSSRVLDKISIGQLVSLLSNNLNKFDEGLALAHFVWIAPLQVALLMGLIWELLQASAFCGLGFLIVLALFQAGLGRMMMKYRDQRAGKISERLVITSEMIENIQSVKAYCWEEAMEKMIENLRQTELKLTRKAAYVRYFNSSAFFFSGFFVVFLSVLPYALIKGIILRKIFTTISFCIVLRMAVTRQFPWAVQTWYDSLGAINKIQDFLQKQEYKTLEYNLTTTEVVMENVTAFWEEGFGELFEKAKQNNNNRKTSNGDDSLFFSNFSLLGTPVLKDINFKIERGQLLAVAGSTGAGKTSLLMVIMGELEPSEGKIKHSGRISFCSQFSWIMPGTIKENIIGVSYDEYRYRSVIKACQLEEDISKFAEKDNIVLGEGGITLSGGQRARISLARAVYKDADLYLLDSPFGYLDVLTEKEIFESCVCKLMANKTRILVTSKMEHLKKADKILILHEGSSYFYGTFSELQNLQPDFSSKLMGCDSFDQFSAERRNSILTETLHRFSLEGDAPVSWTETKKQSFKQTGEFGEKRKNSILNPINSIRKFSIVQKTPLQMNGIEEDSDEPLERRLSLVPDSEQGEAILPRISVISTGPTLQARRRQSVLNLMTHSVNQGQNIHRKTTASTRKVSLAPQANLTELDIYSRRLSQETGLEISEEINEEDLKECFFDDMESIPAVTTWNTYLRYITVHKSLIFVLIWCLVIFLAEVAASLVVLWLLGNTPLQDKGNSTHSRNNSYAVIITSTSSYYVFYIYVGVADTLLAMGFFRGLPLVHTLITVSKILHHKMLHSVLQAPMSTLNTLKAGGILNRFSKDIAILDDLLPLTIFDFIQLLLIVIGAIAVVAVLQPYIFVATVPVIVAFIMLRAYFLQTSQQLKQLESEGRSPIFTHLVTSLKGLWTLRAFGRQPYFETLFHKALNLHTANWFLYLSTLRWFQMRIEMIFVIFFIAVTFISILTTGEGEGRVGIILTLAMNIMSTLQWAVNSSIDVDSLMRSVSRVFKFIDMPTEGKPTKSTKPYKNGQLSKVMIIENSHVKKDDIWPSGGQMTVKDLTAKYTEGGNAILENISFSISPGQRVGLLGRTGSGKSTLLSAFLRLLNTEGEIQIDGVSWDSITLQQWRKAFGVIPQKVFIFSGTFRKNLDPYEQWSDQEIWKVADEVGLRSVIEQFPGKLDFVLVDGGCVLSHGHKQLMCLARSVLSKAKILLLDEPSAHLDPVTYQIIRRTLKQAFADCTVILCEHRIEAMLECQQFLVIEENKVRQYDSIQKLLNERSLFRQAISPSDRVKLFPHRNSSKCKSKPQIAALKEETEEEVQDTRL", "assay": "F508del-CFTR cell surface expression (corrector activity), DiscoveRx ß-galactosidase complementation chemiluminescence assay in recombinant U2OS cell line;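 for all read-outs here: U2OS cells co-expressing ProLink-tagged F508del-CFTR and a membrane-anchored enzyme acceptor, where more surface CFTR restores β-galactosidase activity measured by chemiluminescence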", "details": "for EC50: EC50, F508del-CFTR cell surface expression, U2OS cells, 16h compound incubation, geomean values; for Emax: U2OS, in relation to Emax of corrector lumacaftor (=100%), arithmetic mean values", "data": [{"compound": "CC(C)C[C@H]1C(=O)N(C)C2(CC2)C(=O)N[C@H](Cc2ccccc2)COc2cnc3ccccc3c2C(=O)N[C@H](C(=O)NCCc2ccc(-n3nccn3)cc2)CC(=O)N1C", "note": "[Example 454, (3′S,7′S,13′R)-N-(4-(2H-1,2,3-triazol-2-yl)phenethyl)-13′-benzyl-7′-isobutyl-6′,9′-dimethyl-1′,5′,8′,11′-tetraoxo-2′,3′,4′,5′,6′,7′,8′,9′,11′,12′,13′,14′-dodecahydro-1′H-spiro[cyclopropane-1,10′-[1]oxa[4,7,10,14]tetraazacycloheptadecino[17,16-c]quinoline]-3′-carboxamide]", "values": [{"measurement": "EC50", "result": 234, "unit": "nM"}, {"measurement": "Emax", "result": 236, "unit": "%"}]}, {"compound": "Cc1cc(CCNC(=O)[C@@H]2CC(=O)N(C)[C@@H](CC(C)C)C(=O)N3CCCC[C@@H]3C(=O)N[C@H](Cc3ccccc3)COc3ccc4c(c3C(=O)N2)OCC4)on1", "note": "[Example 455, (8S,12S,18aR,21R)-21-benzyl-12-isobutyl-11-methyl-N-(2-(3-methylisoxazol-5-yl)ethyl)-6,10,13,19-tetraoxo-3,4,6,7,8,9,10,11,12,13,16,17,18,18a,19,20,21,22-octadecahydro-15H-benzofuro[7,6-p]pyrido[2,1-f][1]oxa[4,7,10,14]tetraazacycloheptadecine-8-carboxamide]", "values": [{"measurement": "EC50", "result": 677, "unit": "nM"}, {"measurement": "Emax", "result": 211, "unit": "%"}]}, {"compound": "COc1cccc(CCNC(=O)[C@@H]2CC(=O)N(C)[C@@H](CC(C)C)C(=O)N3CCCC[C@@H]3C(=O)N[C@H](Cc3ccccc3)COc3ccc4c(c3C(=O)N2)OCC4)c1", "note": "[Example 456, (8S,12S,18aR,21R)-21-benzyl-12-isobutyl-N-(3-methoxyphenethyl)-11-methyl-6,10,13,19-tetraoxo-3,4,6,7,8,9,10,11,12,13,16,17,18,18a,19,20,21,22-octadecahydro-15H-benzofuro[7,6-p]pyrido[2,1-f][1]oxa[4,7,10,14]tetraazacycloheptadecine-8-carboxamide]", "values": [{"measurement": "EC50", "result": 250, "unit": "nM"}, {"measurement": "Emax", "result": 185, "unit": "%"}]}, {"compound": "COCCN1C(=O)[C@H](CC(C)C)N(C)C(=O)C[C@@H](C(=O)NCCc2cccc(OC)c2)NC(=O)c2c(ccc3ccccc23)OC[C@@H](Cc2ccccc2)NC(=O)C12CC2", "note": "[Example 457, (3′S,7′S,13′R)-13′-benzyl-7′-isobutyl-9′-(2-methoxyethyl)-N-(3-methoxyphenethyl)-6′-methyl-1′,5′,8′,11′-tetraoxo-2′,3′,4′,5′,6′,7′,8′,9′,11′,12′,13′,14′-dodecahydro-1′H-spiro[cyclopropane-1,10′-naphtho[1,2-p][1]oxa[4,7,10,14]tetraazacycloheptadecine]-3′-carboxamide]", "values": [{"measurement": "EC50", "result": 326, "unit": "nM"}, {"measurement": "Emax", "result": 144, "unit": "%"}]}, {"compound": "Cc1cc(CCNC(=O)[C@@H]2CC(=O)N(C)[C@@H](CC(C)C)C(=O)N3CCN(C(=O)OCC(Cl)(Cl)Cl)C[C@@H]3C(=O)N[C@H](Cc3ccccc3)COc3cnc4ccccc4c3C(=O)N2)on1", "note": "[Example 458, 2,2,2-trichloroethyl (9S,13S,19aR,22R)-22-benzyl-13-isobutyl-12-methyl-9-((2-(3-methylisoxazol-5-yl)ethyl)carbamoyl)-7,11,14,20-tetraoxo-7,8,9,10,11,12,13,14,16,17,19,19a,20,21,22,23-hexadecahydro-18H-pyrazino[2′,1′:6,7][1]oxa[4,7,10,14]tetraazacycloheptadecino[17,16-c]quinoline-18-carboxylate]", "values": [{"measurement": "EC50", "result": 209, "unit": "nM"}, {"measurement": "Emax", "result": 238, "unit": "%"}]}, {"compound": "COc1cccc(CCNC(=O)[C@@H]2CC(=O)N(C)[C@@H](CC(C)C)C(=O)N3CCN(C)C[C@@H]3C(=O)N[C@H](Cc3ccccc3)COc3cnc4ccccc4c3C(=O)N2)c1", "note": "[Example 459, (9S,13S,19aR,22R)-22-benzyl-13-isobutyl-N-(3-methoxyphenethyl)-12,18-dimethyl-7,11,14,20-tetraoxo-7,8,9,10,11,12,13,14,17,18,19,19a,20,21,22,23-hexadecahydro-16H-pyrazino[2′,11:6,7][1]oxa[4,7,10,14]tetraazacycloheptadecino[17,16-c]quinoline-9-carboxamide]", "values": [{"measurement": "EC50", "result": 726, "unit": "nM"}, {"measurement": "Emax", "result": 390, "unit": "%"}]}, {"compound": "COc1cccc(CCNC(=O)[C@@H]2CC(=O)N(C)[C@@H](CC(C)C)C(=O)N(C)C3(CC3)C(=O)N[C@H](Cc3ccccc3)COc3ccc4ncccc4c3C(=O)N2)c1", "note": "[Example 460, (3′S,7′S,13′R)-13′-benzyl-7′-isobutyl-N-(3-methoxyphenethyl)-6′,9′-dimethyl-1′,5′,8′,11′-tetraoxo-2′,3′,4′,5′,6′,7′,8′,9′,11′,12′,13′,14′-dodecahydro-1′H-spiro[cyclopropane-1,10′-[1]oxa[4,7,10,14]tetraazacycloheptadecino[16,17-f]quinoline]-3′-carboxamide]", "values": [{"measurement": "EC50", "result": 310, "unit": "nM"}, {"measurement": "Emax", "result": 398, "unit": "%"}]}, {"compound": "CC(C)C[C@H]1C(=O)N2CCCC[C@@H]2C(=O)N[C@H](Cc2ccccc2)COc2cnc3ccccc3c2C(=O)N[C@H](C(=O)NCCc2cccc(-n3nccn3)c2)CC(=O)N1C", "note": "[Example 461, (9S,13S,19aR,22R)-N-(3-(2H-1,2,3-triazol-2-yl)phenethyl)-22-benzyl-13-isobutyl-12-methyl-7,11,14,20-tetraoxo-7,8,9,10,11,12,13,14,17,18,19,19a,20,21,22,23-hexadecahydro-16H-pyrido[2′,1′:6,7][1]oxa[4,7,10,14]tetraazacycloheptadecino[17,16-c]quinoline-9-carboxamide]", "values": [{"measurement": "EC50", "result": 444, "unit": "nM"}, {"measurement": "Emax", "result": 262, "unit": "%"}]}, {"compound": "CC(C)C[C@H]1C(=O)N2CCCC[C@H]2C(=O)N[C@H](Cc2ccccc2)COc2cnc3ccccc3c2C(=O)N[C@H](C(=O)NCCc2cccc(-n3nccn3)c2)CC(=O)N1C", "note": "[Example 462, (9S,13S,19aS,22R)-N-(3-(2H-1,2,3-triazol-2-yl)phenethyl)-22-benzyl-13-isobutyl-12-methyl-7,11,14,20-tetraoxo-7,8,9,10,11,12,13,14,17,18,19,19a,20,21,22,23-hexadecahydro-16H-pyrido[2′,1′:6,7][1]oxa[4,7,10,14]tetraazacycloheptadecino[17,16-c]quinoline-9-carboxamide]", "values": [{"measurement": "EC50", "result": 345, "unit": "nM"}, {"measurement": "Emax", "result": 130, "unit": "%"}]}, {"compound": "CC(C)C[C@H]1C(=O)N2CCCC[C@@H]2C(=O)N[C@H](Cc2ccccc2)COc2cnc3ccccc3c2C(=O)N[C@H](C(=O)NCCc2ccc(-n3nccn3)cc2)CC(=O)N1C", "note": "[Example 463, (9S,13S,19aR,22R)-N-(4-(2H-1,2,3-triazol-2-yl)phenethyl)-22-benzyl-13-isobutyl-12-methyl-7,11,14,20-tetraoxo-7,8,9,10,11,12,13,14,17,18,19,19a,20,21,22,23-hexadecahydro-16H-pyrido[2′,1′:6,7][1]oxa[4,7,10,14]tetraazacycloheptadecino[17,16-c]quinoline-9-carboxamide]", "values": [{"measurement": "EC50", "result": 278, "unit": "nM"}, {"measurement": "Emax", "result": 269, "unit": "%"}]}, {"compound": "CC(C)C[C@H]1C(=O)N2CCCC[C@H]2C(=O)N[C@H](Cc2ccccc2)COc2cnc3ccccc3c2C(=O)N[C@H](C(=O)NCCc2ccc(-n3nccn3)cc2)CC(=O)N1C", "note": "[Example 464, (9S,13S,19aS,22R)-N-(4-(2H-1,2,3-triazol-2-yl)phenethyl)-22-benzyl-13-isobutyl-12-methyl-7,11,14,20-tetraoxo-7,8,9,10,11,12,13,14,17,18,19,19a,20,21,22,23-hexadecahydro-16H-pyrido[2′,1′:6,7][1]oxa[4,7,10,14]tetraazacycloheptadecino[17,16-c]quinoline-9-carboxamide]", "values": [{"measurement": "EC50", "result": 319, "unit": "nM"}, {"measurement": "Emax", "result": 109, "unit": "%"}]}, {"compound": "COc1cccc(CCNC(=O)[C@@H]2CC(=O)N(C)[C@@H](CC(C)C)C(=O)N(C)CC(=O)N[C@H](Cc3ccccc3)COc3ccc4cnccc4c3C(=O)N2)c1", "note": "[Example 465]", "values": [{"measurement": "EC50", "result": 800, "unit": "nM"}, {"measurement": "Emax", "result": 387, "unit": "%"}]}, {"compound": "COc1nccc2c1C(=O)N[C@H](C(=O)NCCc1cccc(-n3nccn3)c1)CC(=O)N(C)[C@@H](CC(C)C)C(=O)N1CCCC[C@@H]1C(=O)N[C@H](Cc1ccccc1)CO2", "note": "[Example 466, (7S,11S,17aR,20R)-N-(3-(2H-1,2,3-triazol-2-yl)phenethyl)-20-benzyl-11-isobutyl-4-methoxy-10-methyl-5,9,12,18-tetraoxo-5,6,7,8,9,10,11,12,15,16,17,17a,18,19,20,21-hexadecahydro-14H-dipyrido[2,1-f:3′,4′-p][1]oxa[4,7,10,14]tetraazacycloheptadecine-7-carboxamide]", "values": [{"measurement": "EC50", "result": 548, "unit": "nM"}, {"measurement": "Emax", "result": 328, "unit": "%"}]}, {"compound": "COc1nccc2c1C(=O)N[C@H](C(=O)NCCc1cccc(-n3nccn3)c1)CC(=O)N(C)[C@@H](CC(C)C)C(=O)N1CCCC[C@H]1C(=O)N[C@H](Cc1ccccc1)CO2", "note": "[Example 467, (7S,11S,17aS,20R)-N-(3-(2H-1,2,3-triazol-2-yl)phenethyl)-20-benzyl-11-isobutyl-4-methoxy-10-methyl-5,9,12,18-tetraoxo-5,6,7,8,9,10,11,12,15,16,17,17a,18,19,20,21-hexadecahydro-14H-dipyrido[2,1-f:3′,4′-p][1]oxa[4,7,10,14]tetraazacycloheptadecine-7-carboxamide]", "values": [{"measurement": "EC50", "result": 936, "unit": "nM"}, {"measurement": "Emax", "result": 152, "unit": "%"}]}, {"compound": "COc1nccc2c1C(=O)N[C@H](C(=O)NCCc1ccc(-n3nccn3)cc1)CC(=O)N(C)[C@@H](CC(C)C)C(=O)N1CCCC[C@@H]1C(=O)N[C@H](Cc1ccccc1)CO2", "note": "[Example 468, (7S,11S,17aR,20R)-N-(4-(2H-1,2,3-triazol-2-yl)phenethyl)-20-benzyl-11-isobutyl-4-methoxy-10-methyl-5,9,12,18-tetraoxo-5,6,7,8,9,10,11,12,15,16,17,17a,18,19,20,21-hexadecahydro-14H-dipyrido[2,1-f:3′,4′-p][1]oxa[4,7,10,14]tetraazacycloheptadecine-7-carboxamide]", "values": [{"measurement": "EC50", "result": 504, "unit": "nM"}, {"measurement": "Emax", "result": 361, "unit": "%"}]}, {"compound": "COc1cccc(CCNC(=O)[C@@H]2CC(=O)N(C)[C@@H](CC(C)C)C(=O)N3CCCC[C@@H]3C(=O)N[C@H](Cc3ccccc3)COc3nc4ccccn4c3C(=O)N2)c1", "note": "[Example 469, (7S,11S,22R,24aR)-22-benzyl-7-isobutyl-N-(3-methoxyphenethyl)-8-methyl-6,9,13,24-tetraoxo-1,3,4,6,7,8,9,10,11,12,13,21,22,23,24,24a-hexadecahydro-2H-pyrido[2,1-f]pyrido[2′,1′:2,3]imidazo[4,5-p][1]oxa[4,7,10,14]tetraazacycloheptadecine-11-carboxamide]", "values": [{"measurement": "EC50", "result": 381, "unit": "nM"}, {"measurement": "Emax", "result": 110, "unit": "%"}]}]}
